Data on 5 compounds can be found in ChEMBL document CHEMBL5390236, “Biological production of epicoccamide-aglycone and its cytotoxicity” (Bioorg Med Chem Lett, 2023).

One series concerns Staphylococcus aureus. As to the kind of experiment: Antibacterial activity against Staphylococcus aureus. It counts as functional.
Series [1] deals with HeLa. As to the kind of experiment: Cytotoxicity against human HeLa cells assessed as reduction in cell population to half by MTT assay. Type of series: functional, cell-based. In general terms: Tetrazolium dyes change colour on reduction, which living cells bring about.
Series [2] relates to HeLa. The series is described as follows: Cytotoxicity against human HeLa cells assessed as reduction in cell population by MTT assay relative to control. Type of series: functional.
Series [3] is described as follows: Cytotoxicity against human WI-38 cells assessed as inhibition in cell growth at 100 uM by MTT assay relative to control. Type of series: toxicity, cell-based.
In series [4] the test system is HeLa. The series is described as follows: Cytotoxicity against human HeLa cells assessed as reduction in cell population to midpoint between values of non-treated control and lowest population by MTT assay. It counts as functional, cell-based.
The next series concerns Saccharomyces cerevisiae. The series is described as follows: Antifungal activity against Saccharomyces cerevisiae assessed as reduction in fungal growth at 80 ug by paper disk assay. It counts as functional, organism-based. Particulars: dose 80.0 µg.
Series [5] in a line: Cytotoxicity against human WI-38 cells assessed as reduction in cell population to midpoint between values of non-treated control and lowest population by MTT assay. It counts as toxicity, cell-based.
Series [6] can be described thus: Cytotoxicity against human WI-38 cells assessed as reduction in cell population to half by MTT assay. Type of series: toxicity, cell-based.
The subject of series [7] is HeLa. As to the kind of experiment: Cytotoxicity against human HeLa cells assessed as inhibition in cell growth at 200 uM by MTT assay. It counts as functional, cell-based.
For the next series, the system named is Cryptococcus neoformans. As to the kind of experiment: Antifungal activity against Cryptococcus neoformans assessed as reduction in fungal growth at 80 ug by paper disk assay. Particulars: dose 80.0 µg. Type of series: functional, organism-based.
A short description of series [8]: Cytotoxicity against human WI-38 cells assessed as reduction in cell population by MTT assay relative to control. Type of series: toxicity, cell-based.
Another series has as its system Escherichia coli. The series is described as follows: Antibacterial activity against Escherichia coli. It counts as functional, organism-based.
In series [9] the test system is HeLa. The series is described as follows: Cytotoxicity against human HeLa cells assessed as relative cell population at 50 uM by MTT assay relative to control. Type of series: functional.
The subject of series [10] is HeLa. The series is described as follows: Cytotoxicity against human HeLa cells assessed as relative cell population at 100 uM by MTT assay relative to control. Type of series: functional.
Series [11] deals with Epicoccum nigrum. As to the kind of experiment: Antifungal activity against Epicoccum nigrum deltaepcB assessed as reduction in fungal growth at 80 ug by paper disk assay. Type of series: functional, organism-based. Particulars: dose 80.0 µg.
For series [12], the system named is Epicoccum nigrum. The series is described as follows: Antifungal activity against wild type Epicoccum nigrum assessed as reduction in fungal growth at 80 ug by paper disk assay. Type of series: functional, organism-based. Particulars: dose 80.0 µg.
For series [13], the system named is HeLa. The series is described as follows: Cytotoxicity against human HeLa cells assessed as inhibition in cell proliferation at 10 to 100 uM by MTT assay. Type of series: functional, cell-based. To be noted: dose 10-100 µM.
The subject of a further series is WI-38. The series is described as follows: Cytotoxicity against human WI-38 cells assessed as inhibition in cell proliferation at 10 to 100 uM by MTT assay. Type of series: toxicity, cell-based. Particulars: wi-38, 100 µM, dose 10-100 µM.

In brackets after ≈: the same amount, converted by molar mass. Activity calls are given as the source filed them. The rule behind the calls is not given here.

Consider `C[C@@H](CCCCCCCCC(=O)CCCCCCCCC[C@H](O)CO[C@@H]1O[C@H](CO)[C@@H](O)[C@H](O)[C@@H]1O)/C(O)=C1/C(=O)N[C@@H](Cc2ccc(O)cc2)C1=O`, for which the MIC (commonly the lowest concentration found to suppress growth) against Staphylococcus aureus was 7.2 µg/mL (≈ 9.6 µM).

`COc1cccc2c1C(=O)c1c(O)c3c(c(O)c1C2=O)C[C@@](O)(C(=O)CO)C[C@@H]3O[C@H]1C[C@H](N)[C@H](O)[C@H](C)O1` [DOXORUBICIN]: in the series with HeLa [1], the 50% inhibitory concentration (IC50) (usually the midpoint of a concentration-inhibition curve) worked out at 5.1 µM. Moreover, in the series with HeLa [2], the Emax – broadly, the greatest response seen or fitted, relative to the assay's reference – amounted to 15%. Further, in series [3], the inhibition – broadly, the relative decrease from the control value, in per cent – at 100 µM was less than 10%. Moreover, the 50% effective concentration (EC50) (as a rule, the concentration giving half of the maximal effect) in the series on HeLa [4] was found to be 4.3 µM.

As for `C[C@@H](CCCCCCCCC(=O)CCCCCCCCC[C@H](O)CO)/C(O)=C1/C(=O)N[C@@H](Cc2ccc(O)cc2)C1=O`, the minimum inhibitory concentration (MIC) against Staphylococcus aureus came out at 2.8 µg/mL (≈ 4.76 µM).

On to `C[C@@H](CCCCCCCCCCCCCCO[C@@H]1O[C@H](CO)[C@@H](O)[C@H](O)[C@@H]1O)C(=O)C1=C(O)N(C)[C@@H](C)C1=O`, for which the result with Saccharomyces cerevisiae was Active. The IC50 stood at 76 µM in the series with HeLa [1] (read-out: IC50) and 38 µM in [6]. Further, the maximal effect (Emax) with HeLa [2] was found to be 3.2%; in [8] it was 4.6%. For the same compound, the EC50 in series [5] stood at 34 µM; in the series with HeLa [4], 70 µM. In the series with Staphylococcus aureus, this compound registered an MIC of 64 µg/mL (≈ 115 µM). Moreover, the inhibition result in the series with HeLa [7] is “Active”. In addition, the result in the series with Cryptococcus neoformans, with Escherichia coli, in the series with Epicoccum nigrum [11] and in the series with Epicoccum nigrum [12] was inactive. The Activity with HeLa [9] was found to be 88%; with HeLa [10] it was 14%.

For `C[C@@H](CCCCCCCCCCCCCCO)C(=O)C1=C(O)N(C)[C@@H](C)C1=O`, the outcome in the series on Saccharomyces cerevisiae was Active. Further, the results for the IC50 (in the series with HeLa [1] (read-out: IC50); in series [6]) were 19 µM and 15 µM, respectively. Besides, the values for the maximal effect (Emax) (with HeLa [2]; in [8]) were 23% and 20%, respectively. The 50% effective concentration (EC50) in series [5] amounted to 9.1 µM; in the series with HeLa [4], 12 µM. The compound also showed an MIC in the series with Staphylococcus aureus of 1 µg/mL (≈ 2.53 µM). The result with Cryptococcus neoformans, in the series on Escherichia coli, in the series with Epicoccum nigrum [11] and in the series on Epicoccum nigrum [12] was inactive. Moreover, the inhibition result in the series on HeLa [13] is “Active”. Further, in the series with WI-38, the Activity result is “Toxic”.
